{"source": "patent US20020059032A1", "about": "“Rational selection of putative peptides from identified nucleotide or peptide sequences” (priority 1999, published 2002)", "note": "Where a SMILES comes first, the peptide text is derived from it."}
{"biological_target": "guinea pig brain membranes", "assay": "Binding test with guinea pig brain membranes", "details": "tested on guinea pig brain membranes; read-out: IC50 = 100 μM", "protocol": "Binding Assay Alternative Protocol by Skatron\nThe experimental conditions are identical for all the binding assay protocols except for the fact that: i) the volume R in operation is 200 μl; ii) the test carried out in 96-well Falcon plates iii) the reaction is directly stopped by filtration on filterMat (ref. 11734) Skatron and the radioactivity associated with the filtrate is evaluated: either directly with a γ counter for the peptides labelled with […]: or with a […] in the presence of 5 ml of scintillating liquid.\nMembrane Preparations of Guinea Pig Brains and Binding Assay\nThe guinea pigs are sacrificed by rupturing their cervical vertibrae, decapitated, and the brains are removed very rapidly and placed into a sucrose-Tris-HCl buffer (0.32 M sucrose 5 mM, Tris-HCl, 0.1 g/l bacitracin) at 4° C. (about 10 ml of buffer per brain). The brains are then homogenized using a Potter device and the homogenate is placed in incubation for 30 minutes at 37° C. under agitation, then centrifuged twice for 35 minutes at 100,000×g at 4° C. The protein content of the membrane preparations is evaluated according to the Bradford method (BioRad, according to the manufacturers protocol).\nBonding of Labelled Agonists to the Guinea Pig Brain Membrane Preparation The membranes are placed in a buffer (50 mM of Tris-HCl, 5 mM of MgCl2 and 0.1 g/l of bacitracin) at the desired protein concentration (iodized CCK bond, 0.1 mg of protein/ml; iodized gastrin bond: 0.5 mg of proteins/ml). They are then incubated in the presence of a labelled ligand in a total volume of 500 μl (about 10 pM for the iodized CCK8, 20 pM for the iodized gastrin13), 50-80 minutes at 25° C., and in the presence or absence of cold agonists. The reaction is stopped with 3 ml of additional BSA buffer (20 g/l) at 4° C., the tubes are centrifuged at 10,000×g, the supernatant is drawn off and the radioactivity associated with the precipitate is evaluated with a γ counter.", "units": {"IC50": "nM"}}
{"molecule": "CC[C@H](C)[C@H](NC(=O)[C@H](C)NC(=O)[C@H](C)NC(=O)[C@@H](NC(=O)[C@H](CO)NC(=O)[C@H](C)NC(=O)[C@H](Cc1ccccc1)NC(=O)[C@H](Cc1ccc(O)cc1)NC(=O)[C@H](CCC(N)=O)NC(=O)[C@@H](NC(=O)[C@@H](N)C(C)C)[C@@H](C)CC)[C@@H](C)CC)C(=O)NCC(=O)N[C@@H](CC(=O)O)C(=O)N[C@@H](CCCNC(=N)N)C(N)=O", "note": "[Example 52, H-VIQYFASIAAIGDR-NH2] (H-VIQYFASIAAIGDR-NH2)", "IC50": 7000}
{"molecule": "CC[C@H](C)[C@H](NC(=O)[C@H](CO)NC(=O)[C@H](Cc1ccccc1)NC(=O)[C@@H](N)CO)C(=O)N[C@H](C(=O)NCC(=O)N[C@@H](CC(=O)O)C(=O)N[C@@H](Cc1ccccc1)C(=O)N[C@@H](CCC(N)=O)C(=O)N[C@@H](CC(N)=O)C(N)=O)[C@@H](C)CC", "note": "[Example 30, H-SFSIIGDFQN-NH2] (H-SFSIIGDFQN-NH2)", "IC50": 27000}
{"molecule": "CC(C)C[C@H](NC(=O)[C@H](CO)NC(=O)[C@@H](NC(=O)[C@H](CC(=O)O)NC(=O)[C@@H](N)CO)[C@@H](C)O)C(=O)N[C@H](C(=O)N[C@@H](Cc1c[nH]c2ccccc12)C(=O)N[C@@H](CC(N)=O)C(=O)N[C@@H](CO)C(=O)N[C@H](C(=O)N[C@@H](CCCCN)C(N)=O)C(C)C)[C@@H](C)O", "note": "[Example 27, H-SDTSLTWNSVK-NH2] (H-SDTSLTWNSVK-NH2)", "IC50": 680}
{"molecule": "CC(C)C[C@H](NC(=O)[C@H](CCC(=O)O)NC(=O)[C@H](CC(=O)O)NC(=O)[C@H](CC(C)C)NC(=O)[C@@H](NC(=O)[C@H](Cc1ccccc1)NC(=O)[C@H](C)NC(=O)[C@H](Cc1c[nH]cn1)NC(=O)[C@H](CO)NC(=O)[C@H](CO)NC(=O)[C@@H](N)CC(=O)O)[C@@H](C)O)C(=O)N[C@@H](CCCNC(=N)N)C(N)=O", "note": "[Example 17, H-DSSHAFTLDELR-NH2] (H-DSSHAFTLDELR-NH2)", "IC50": 680}
{"molecule": "CSCC[C@H](NC(=O)[C@@H](N)CC(=O)O)C(=O)N[C@H](C(=O)N[C@H](C(=O)N[C@@H](Cc1ccccc1)C(=O)N[C@@H](CC(C)C)C(=O)N[C@@H](CC(=O)O)C(=O)NCC(=O)NCC(=O)N[C@@H](CCC(N)=O)C(=O)N[C@@H](CC(C)C)C(=O)NCC(=O)N[C@H](C(=O)N[C@@H](CC(C)C)C(=O)N[C@H](C(N)=O)C(C)C)[C@@H](C)O)C(C)C)C(C)C", "note": "[Example 18, H-DMVVFLDGGQLGTLV-NH2] (H-DMVVFLDGGQLGTLV-NH2)", "IC50": 800}
{"molecule": "CC[C@H](C)[C@H](N)C(=O)N[C@@H](CO)C(=O)N[C@@H](CCC(=O)O)C(=O)N[C@@H](CC(C)C)C(=O)N[C@@H](Cc1ccccc1)C(=O)N[C@H](C(=O)N[C@@H](CC(C)C)C(=O)N[C@@H](CCC(=O)O)C(N)=O)[C@@H](C)O", "note": "[Example 35, H-ISELFTLE-NH2] (H-ISELFTLE-NH2)", "IC50": 5600}
{"molecule": "CC(C)C[C@H](NC(=O)[C@H](CCCCN)NC(=O)[C@H](CO)NC(=O)[C@@H](N)CCC(=O)O)C(=O)N[C@@H](CCC(=O)O)C(=O)N[C@@H](CCCNC(=N)N)C(=O)N[C@H](C(=O)N1CCC[C@H]1C(=O)N[C@@H](CCC(N)=O)C(=O)N[C@@H](CCCCN)C(=O)N[C@@H](CC(N)=O)C(=O)N[C@H](C(=O)N[C@@H](CCC(N)=O)C(N)=O)C(C)C)[C@@H](C)O", "note": "[Example 41, H-ESKLERTPQKNVQ-NH2] (H-ESKLERTPQKNVQ-NH2)", "IC50": 250}
{"molecule": "CSCC[C@H](NC(=O)[C@H](Cc1ccccc1)NC(=O)[C@H](Cc1ccc(O)cc1)NC(=O)[C@H](CC(N)=O)NC(=O)[C@@H](N)CO)C(=O)N1CCC[C@H]1C(=O)N[C@@H](Cc1ccccc1)C(=O)N[C@@H](CO)C(=O)N[C@@H](C)C(N)=O", "note": "[Example 21, H-SNYFMPFSA-NH2] (H-SNYFMPFSA-NH2)", "IC50": 160}
{"molecule": "CC(C)C[C@H](NC(=O)[C@@H](N)CCC(N)=O)C(=O)N[C@@H](Cc1c[nH]c2ccccc12)C(=O)N[C@@H](CC(=O)O)C(=O)N[C@H](C(=O)N[C@@H](C)C(=O)N[C@@H](Cc1c[nH]cn1)C(=O)N[C@@H](CO)C(=O)N[C@H](C(=O)N[C@@H](CCCCN)C(=O)N[C@@H](CCC(=O)O)C(=O)N[C@@H](CCCCN)C(=O)N[C@@H](Cc1ccccc1)C(N)=O)C(C)C)C(C)C", "note": "[Example 54, H-QLWDVAHSVKEKF-NH2] (H-QLWDVAHSVKEKF-NH2)", "IC50": 300}
{"molecule": "CSCC[C@H](NC(=O)[C@H](C)NC(=O)[C@H](CCCCN)NC(=O)[C@H](CC(N)=O)NC(=O)[C@H](C)NC(=O)[C@H](CCC(=O)O)NC(=O)[C@H](CCC(=O)O)NC(=O)[C@H](CCCCN)NC(=O)[C@H](C)NC(=O)[C@H](CC(=O)O)NC(=O)[C@H](CCC(N)=O)NC(=O)[C@H](CCC(=O)O)NC(=O)[C@H](C)NC(=O)[C@@H](N)Cc1ccccc1)C(N)=O", "note": "[Example 48, H-FAEQDAKEEANKAM-NH2] (H-FAEQDAKEEANKAM-NH2)", "IC50": 1470}
{"molecule": "CC(C)[C@H](NC(=O)[C@@H](NC(=O)[C@H](CCCCN)NC(=O)[C@@H]1CCCN1C(=O)[C@@H](NC(=O)[C@@H](NC(=O)[C@H](C)NC(=O)[C@H](CCCNC(=N)N)NC(=O)[C@@H]1CCCN1)[C@@H](C)O)[C@@H](C)O)[C@@H](C)O)C(=O)N[C@@H](CCCNC(=N)N)C(=O)N[C@@H](CO)C(N)=O", "note": "[Example 42, H-PRATTPKTVRS-NH2] (H-PRATTPKTVRS-NH2)", "IC50": 560}
{"molecule": "CC(C)C[C@H](NC(=O)[C@H](CC(C)C)NC(=O)[C@@H](N)CO)C(=O)N[C@@H](CO)C(=O)N[C@@H](CCCCN)C(=O)N[C@H](C(=O)N[C@@H](CO)C(=O)N[C@@H](CCC(N)=O)C(N)=O)C(C)C", "note": "[Example 7, H-SLLSKVSQ-NH2] (H-SLLSKVSQ-NH2)", "IC50": 430}
{"molecule": "CC[C@H](C)[C@H](NC(=O)[C@H](CCCCN)NC(=O)[C@@H](NC(=O)[C@H](CC(C)C)NC(=O)[C@@H](NC(=O)CNC(=O)[C@@H](N)CO)[C@@H](C)O)[C@@H](C)CC)C(=O)N[C@@H](Cc1ccccc1)C(=O)N[C@@H](CCC(N)=O)C(=O)N[C@@H](C)C(=O)N[C@@H](CO)C(N)=O", "note": "[Example 47, H-SGTLIKIFQAS-NH2] (H-SGTLIKIFQAS-NH2)", "IC50": 300}
{"molecule": "CC(C)C[C@H](NC(=O)[C@H](C)NC(=O)[C@H](CCCCN)NC(=O)CNC(=O)[C@@H]1CCCN1C(=O)[C@@H](NC(=O)[C@H](C)NC(=O)CN)[C@@H](C)O)C(=O)N[C@H](C(=O)N[C@@H](C)C(=O)N[C@H](C(=O)N1CCC[C@H]1C(N)=O)[C@@H](C)O)C(C)C", "note": "[Example 39, H-GATPGKALVATP-NH2] (H-GATPGKALVATP-NH2)", "IC50": 400}
{"molecule": "CC[C@H](C)[C@H](NC(=O)[C@H](CC(N)=O)NC(=O)[C@H](Cc1c[nH]cn1)NC(=O)[C@@H](N)CC(C)C)C(=O)N[C@@H](CC(C)C)C(=O)NCC(=O)N[C@H](C(=O)N[C@@H](CCC(=O)O)C(=O)N[C@H](C(=O)NCC(=O)NCC(=O)N1CCC[C@H]1C(=O)NCC(N)=O)[C@@H](C)O)C(C)C", "note": "[Example 33, H-LHNILGVETGGPG-NH2] (H-LHNILGVETGGPG-NH2)", "IC50": 100}
{"molecule": "C[C@@H](O)[C@H](NC(=O)[C@@H](N)CCC(=O)O)C(=O)N[C@@H](CCCCN)C(=O)N[C@@H](Cc1c[nH]cn1)C(=O)NCC(=O)NCC(=O)N[C@@H](Cc1c[nH]cn1)C(=O)N[C@@H](CCCCN)C(=O)N[C@@H](CC(N)=O)C(N)=O", "note": "[Example 49, H-ETKHGGHKN-NH2] (H-ETKHGGHKN-NH2)", "IC50": 330}
{"molecule": "CC[C@H](C)[C@H](NC(=O)CNC(=O)[C@H](CCC(=O)O)NC(=O)[C@H](CC(C)C)NC(=O)[C@@H](N)CO)C(=O)N[C@@H](Cc1ccccc1)C(=O)N[C@@H](CC(=O)O)C(=O)N[C@@H](CC(=O)O)C(=O)N[C@H](C(=O)N[C@H](C(=O)N1CCC[C@H]1C(=O)N[C@@H](CC(=O)O)C(N)=O)C(C)C)[C@@H](C)CC", "note": "[Example 20, H-SLEGIFDDIVPD-NH2] (H-SLEGIFDDIVPD-NH2)", "IC50": 350}
